Earlier results, collected in US20220125811A1, “INJECTABLE COMPOSITION FOR INDUCING LIPOLYSIS AND METHOD USING THE SAME” (priority 2020, published 2022).

Details: half saline; 5 mEq sodium bicarbonate (8.4%); 6 cc multivitamin formulation; 10 cc amino acid formulation

osmolarity of the ingredient amount used in the calculation: 10 mOsm
SMILES: O=C([O-])O.[Na+] [sodium bicarbonate (8.4%), sodium bicarbonate]
